The values below come from US8546377B2 (AbbVie Inc., priority 2009, dated 2013).

By EC50 is commonly meant the concentration at which the effect is half-maximal. Usually Emax stands for the greatest response seen or fitted, relative to the assay's reference.

Read-outs that look alike come from different tables or passages of the source.

One assay deals with T1, 5HT2C receptors (Homo sapiens, UniProt P28335).
T1 sequence (P28335 33-458): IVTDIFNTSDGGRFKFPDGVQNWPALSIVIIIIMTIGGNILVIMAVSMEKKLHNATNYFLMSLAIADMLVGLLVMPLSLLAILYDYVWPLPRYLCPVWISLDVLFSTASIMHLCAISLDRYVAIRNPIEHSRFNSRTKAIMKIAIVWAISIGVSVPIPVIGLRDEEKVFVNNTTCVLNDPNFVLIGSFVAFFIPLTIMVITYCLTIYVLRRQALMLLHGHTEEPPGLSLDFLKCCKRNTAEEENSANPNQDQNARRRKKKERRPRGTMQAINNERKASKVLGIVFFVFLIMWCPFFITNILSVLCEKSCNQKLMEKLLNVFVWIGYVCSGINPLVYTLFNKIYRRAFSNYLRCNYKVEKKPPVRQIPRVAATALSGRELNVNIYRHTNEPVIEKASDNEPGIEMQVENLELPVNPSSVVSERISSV
The experiment in a line: Human 5-HT2C functional assay in CHO-K1 cells (calcium flux, FLIPR). Format: cell-based. Further details: expressed in transfected cells; host or cells: CHO-K1 cells. The method, boiled down: (§1)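 Frozen CHO-K1 cells over-expressing receptor, serum-starved overnight, loaded with Ca4 dye plus 2.5 mM probenecid for 60 min at room temperature. FLIPR fluorescence (ex 480/em 530 nm, 25° C) recorded 3 min after compound addition; 6-point 1:10 series from 10 μM, 0.2% DMSO. Response normalized to serotonin, 4-parameter fit gives EC50; Emax as % of serotonin.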
(A change in cytosolic calcium serves as a functional read-out for many receptors and channels.)

The next assay deals with T2, 5HT2B receptors (Homo sapiens, UniProt P41595).
T2 construct: expressed in transfected cells; host or cells: CHO-K1 cells
The experiment in a line: Human 5-HT2B functional assay in CHO-K1 cells (calcium flux, FLIPR). Format: cell-based. The method in brief:
as §1

[1] abbreviates: CHO-K1 cells over-expressing 5HT2C, calcium flux, read-out: EC50 (μM), 5-HT2c Agonist Activity.
Setting [2] is: CHO-K1 cells, percentage relative to the effect of serotonin, read-out: Emax (%), 5-HT2c Agonist Activity.
Where [3] appears, read: CHO-K1 cells over-expressing 5HT2B, calcium flux, read-out: EC50 (μM), 5-HT2B Agonist Activity.
Setting [4] is: CHO-K1 cells, percentage relative to the effect of serotonin, read-out: Emax (%), 5-HT2B Agonist Activity.
[5] abbreviates: CHO-K1, read-out: Emax (%), 5-HT2c Agonist Activity, CHO-K1 cells, percentage relative to the effect of serotonin.
[6] abbreviates: CHO-K1, read-out: Emax (%), 5-HT2c Agonist Activity.
Setting [7] is: CHO-K1, read-out: Emax (%), 5-HT2B Agonist Activity.

T2 sequence (P41595 whole entry): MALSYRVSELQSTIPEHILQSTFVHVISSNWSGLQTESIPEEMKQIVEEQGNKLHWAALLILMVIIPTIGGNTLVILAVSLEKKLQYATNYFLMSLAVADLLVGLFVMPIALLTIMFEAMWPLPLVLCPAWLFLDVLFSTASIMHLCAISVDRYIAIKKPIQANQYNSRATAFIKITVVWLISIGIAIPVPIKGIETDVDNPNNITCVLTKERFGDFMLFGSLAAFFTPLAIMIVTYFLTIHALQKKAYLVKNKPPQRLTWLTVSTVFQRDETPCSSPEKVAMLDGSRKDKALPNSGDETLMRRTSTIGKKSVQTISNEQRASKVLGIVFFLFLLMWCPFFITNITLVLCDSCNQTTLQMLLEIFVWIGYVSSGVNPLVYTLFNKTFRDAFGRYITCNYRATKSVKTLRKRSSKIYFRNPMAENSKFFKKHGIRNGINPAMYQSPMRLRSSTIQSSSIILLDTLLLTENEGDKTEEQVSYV

For the compound `CS(=O)(=O)c1ccccc1-c1ccc2c(c1)N1CCNC[C@@H]1CCO2` [Example 195, (4aS)-10-[2-(methylsulfonyl)phenyl]-2,3,4,4a,5,6-hexahydro-1H-pyrazino[2,1-d][1,5]benzoxazepine], the EC50 was determined as 0.007 µM on 5HT2C receptors (setting [1]) and 0.3 µM on 5HT2B receptors (setting [3]). Besides, the results for the maximal response (Emax) on 5HT2C receptors (setting [2]) and on 5HT2B receptors (setting [4]) were above 120% and 55%, respectively.

With `CN1CCN2c3cc(Cl)ccc3NC(=O)C[C@H]2C1` [Example 84, (4aS)-10-chloro-3-methyl-1,2,3,4,4a,5-hexahydropyrazino[1,2-a][1,5]benzodiazepin-6(7H)-one], the concentration giving a half-maximal response (EC50) on 5HT2C receptors is 0.067 µM; on 5HT2B receptors, above 10 µM. In addition, the Emax on 5HT2C receptors (setting [5]) came to 90%.

As for `O=C1CC2CNCCN2c2cc(OCCc3ccccc3)ccc2N1` (centres unmarked) [Example 158, 10-(2-phenylethoxy)-1,2,3,4,4a,5-hexahydropyrazino[1,2-a][1,5]benzodiazepin-6(7H)-one], the results for the EC50 at 5HT2C receptors (setting [1]) and at 5HT2B receptors (setting [3]) were 0.025 µM and above 10 µM, respectively. The Emax on 5HT2C receptors (setting [2]) was above 120%.

Consider `O=C1CC2CNCCN2c2cc(OCc3ccccc3)ccc2N1` (centres unmarked) [Example 149, 10-(benzyloxy)-1,2,3,4,4a,5-hexahydropyrazino[1,2-a][1,5]benzodiazepin-6(7H)-one], for which the EC50 was 0.02 µM at 5HT2C receptors (setting [1]) and 1 µM on 5HT2B receptors (setting [3]). Besides, the results for the Emax on 5HT2C receptors (setting [2]) and at 5HT2B receptors (setting [4]) were above 120% and 30%, respectively.

For `C[C@@H](Cc1ccccc1)Oc1ccc2c(c1)N1CCNC[C@@H]1CC(=O)N2` [Example 163, (4aS)-10-{[(2S)-1-phenylpropan-2-yl]oxy}-1,2,3,4,4a,5-hexahydropyrazino[1,2-a][1,5]benzodiazepin-6(7H)-one], the EC50 on 5HT2C receptors (setting [1]) is 0.07 µM; at 5HT2B receptors (setting [3]), above 10 µM. The Emax at 5HT2C receptors (setting [2]) is above 120%.

On to `Cc1cccc(-c2ccc3c(c2)N2CCNCC2CC(=O)N3)c1` (centres unmarked) [Example 89, 10-(3-methylphenyl)-1,2,3,4,4a,5-hexahydropyrazino[1,2-a][1,5]benzodiazepin-6(7H)-one], for which the EC50 on 5HT2C receptors (setting [1]) was 0.07 µM; on 5HT2B receptors (setting [3]), above 10 µM. Besides, the Emax on 5HT2C receptors (setting [2]) is above 120%.

Take `COc1ccccc1-c1ccc2c(c1)N1CCNC[C@@H]1CCO2` [Example 192, (4aS)-10-(2-methoxyphenyl)-2,3,4,4a,5,6-hexahydro-1H-pyrazino[2,1-d][1,5]benzoxazepine]: the EC50 on 5HT2C receptors (setting [1]) was found to be 0.03 µM; on 5HT2B receptors (setting [3]), 1 µM. Besides, the maximal effect (Emax) on 5HT2C receptors (setting [2]) was above 120%; at 5HT2B receptors (setting [4]), 10%.

For the compound `FCCN1CCN2c3ccccc3OCC[C@H]2C1` [Example 240, (4aS)-3-(2-fluoroethyl)-2,3,4,4a,5,6-hexahydro-1H-pyrazino[2,1-d][1,5]benzoxazepine], the Emax at 5HT2C receptors (setting [6]) was determined as 90%; at 5HT2B receptors (setting [7]) it was 10%. Further, the EC50 on 5HT2C receptors (setting [1]) is 0.04 µM; on 5HT2B receptors (setting [3]) it was 1 µM.

As for `O=C1CC2CNCCN2c2cc(-c3ccccc3F)ccc2N1` (centres unmarked) [Example 70, 10-(2-fluorophenyl)-1,2,3,4,4a,5-hexahydropyrazino[1,2-a][1,5]benzodiazepin-6(7H)-one], the EC50 at 5HT2C receptors (setting [1]) is 0.06 µM; on 5HT2B receptors (setting [3]) it was above 10 µM. Further, at 5HT2C receptors (setting [2]), the Emax was above 120%.

As for `Fc1cccc(-c2ccc3c(c2)N2CCNC[C@@H]2CCO3)c1` [Example 204, (4aS)-10-(3-fluorophenyl)-2,3,4,4a,5,6-hexahydro-1H-pyrazino[2,1-d][1,5]benzoxazepine], the EC50 at 5HT2C receptors (setting [1]) is 0.05 µM; on 5HT2B receptors (setting [3]) it was above 10 µM. In addition, at 5HT2C receptors (setting [2]), the maximum response (Emax) is above 120%.

Turning to `Fc1cccc2c1OCC[C@@H]1CNCCN21` [Example 270, (4aR)-8-fluoro-2,3,4,4a,5,6-hexahydro-1H-pyrazino[2,1-d][1,5]benzoxazepine], the EC50 at 5HT2C receptors turned out to be 0.0009 µM; on 5HT2B receptors, 0.04 µM. Besides, the figures for the Emax at 5HT2C receptors (setting [5]) and on 5HT2B receptors (setting [7]) were 90% and 80%, respectively.

In the case of `Fc1ccccc1-c1ccc2c(c1)N1CCNC[C@@H]1CCO2` [Example 203, (4aS)-10-(2-fluorophenyl)-2,3,4,4a,5,6-hexahydro-1H-pyrazino[2,1-d][1,5]-benzoxazepine], the EC50 at 5HT2C receptors (setting [1]) was found to be 0.02 µM; on 5HT2B receptors (setting [3]) it was 2 µM. Further, the Emax is above 120% at 5HT2C receptors (setting [2]) and 15% on 5HT2B receptors (setting [4]).

Regarding `C[C@@H]1CN2c3ccccc3OCC[C@H]2CN1` [Example 266, (2R,4aS)-2-methyl-2,3,4,4a,5,6-hexahydro-1H-pyrazino[2,1-d][1,5]benzoxazepine], the EC50 on 5HT2C receptors is 0.1 µM; at 5HT2B receptors it was 0.5 µM. Further, the figures for the Emax at 5HT2C receptors (setting [5]) and on 5HT2B receptors (setting [7]) were 70% and 15%, respectively.

Turning to `FCCN1CCN2c3cccc(F)c3OCC[C@H]2C1` [Example 245, (4aS)-8-fluoro-3-(2-fluoroethyl)-2,3,4,4a,5,6-hexahydro-1H-pyrazino[2,1-d][1,5]benzoxazepine], the results for the Emax on 5HT2C receptors (setting [6]) and at 5HT2B receptors (setting [7]) were 95% and 20%, respectively. In addition, the EC50 on 5HT2C receptors (setting [1]) was determined as 0.009 µM; on 5HT2B receptors (setting [3]) it was 0.2 µM.

With `O=C1CC2CNCCN2c2cc(COc3ccc(F)cc3)ccc2N1` (centres unmarked) [Example 115, 10-[(4-fluorophenoxy)methyl]-1,2,3,4,4a,5-hexahydropyrazino[1,2-a][1,5]benzodiazepin-6(7H)-one], the concentration giving a half-maximal response (EC50) is 0.2 µM on 5HT2C receptors (setting [1]) and above 10 µM at 5HT2B receptors (setting [3]). Moreover, on 5HT2C receptors (setting [2]), the maximal response (Emax) was above 120%.

Take `C[C@@H](Oc1ccc2c(c1)N1CCNCC1CC(=O)N2)c1ccccc1F` (stereo partly drawn) [Example 161, 10-[(1R)-1-(2-fluorophenyl)ethoxy]-1,2,3,4,4a,5-hexahydropyrazino[1,2-a][1,5]benzodiazepin-6(7H)-one]: the figures for the EC50 on 5HT2C receptors (setting [1]) and on 5HT2B receptors (setting [3]) were 0.01 µM and 1 µM, respectively. Moreover, the maximal effect (Emax) was determined as 120% on 5HT2C receptors (setting [2]) and 20% on 5HT2B receptors (setting [4]).

Regarding `c1ccc2c(c1)CCCC1CNCCN21` (centres unmarked) [Example 182, 1,2,3,4,4a,5,6,7-octahydropyrazino[1,2-a][1]benzazepine], the EC50 is 0.007 µM on 5HT2C receptors and 0.1 µM on 5HT2B receptors. In addition, the maximal response (Emax) on 5HT2C receptors (setting [5]) is above 120%; on 5HT2B receptors (setting [7]) it was 40%.

Take `O=C1CC2CNCCN2c2cc(-c3ccccc3-c3ccccc3)ccc2N1` (centres unmarked) [Example 64, 10-(biphenyl-2-yl)-1,2,3,4,4a,5-hexahydropyrazino[1,2-a][1,5]benzodiazepin-6(7H)-one]: the EC50 is 0.03 µM at 5HT2C receptors (setting [1]) and 1 µM on 5HT2B receptors (setting [3]). In addition, the maximal response (Emax) on 5HT2C receptors (setting [2]) was found to be 110%; on 5HT2B receptors (setting [4]), 15%.

In the case of `CC(=O)c1cccc(-c2ccc3c(c2)N2CCNC[C@@H]2CCO3)c1` [Example 198, 1-{3-[(4aS)-2,3,4,4a,5,6-hexahydro-1H-pyrazino[2,1-d][1,5]benzoxazepin-10-yl]phenyl}ethanone], the EC50 stood at 0.01 µM on 5HT2C receptors (setting [1]) and 1 µM at 5HT2B receptors (setting [3]). Moreover, the Emax was above 120% at 5HT2C receptors (setting [2]) and 25% at 5HT2B receptors (setting [4]).

Consider `O=C1C[C@@H]2CNCCN2c2c(F)cccc2N1` [Example 87, (4aR)-11-fluoro-1,2,3,4,4a,5-hexahydropyrazino[1,2-a][1,5]benzodiazepin-6(7H)-one], for which the values for the EC50 on 5HT2C receptors and at 5HT2B receptors were 0.9 µM and above 10 µM, respectively. For the same compound, the Emax on 5HT2C receptors (setting [5]) was above 120%.

In the case of `CN1CCN2c3ccccc3OCC[C@@H]2C1` [Example 268, (4aR)-3-methyl-2,3,4,4a,5,6-hexahydro-1H-pyrazino[2,1-d][1,5]benzoxazepine], the EC50 on 5HT2C receptors is 0.01 µM; on 5HT2B receptors, 0.2 µM. The Emax at 5HT2C receptors (setting [5]) is 95%; at 5HT2B receptors (setting [7]), 50%.

Regarding `CC(O)c1ccc(-c2cccc3c2OCC[C@H]2CNCCN32)cc1` (stereo partly drawn) [Example 234, 1-{4-[(4aS)-2,3,4,4a,5,6-hexahydro-1H-pyrazino[2,1-d][1,5]benzoxazepin-8-yl]phenyl}ethanol], the EC50 on 5HT2C receptors (setting [1]) was determined as 0.01 µM; at 5HT2B receptors (setting [3]) it was 0.3 µM. Moreover, the maximal response (Emax) on 5HT2C receptors (setting [2]) was 105%; at 5HT2B receptors (setting [4]) it was 10%.

Consider `O=C1CC2CNCCN2c2cc(OCc3ccccc3F)ccc2N1` (centres unmarked) [Example 155, 10-[(2-fluorobenzyl)oxy]-1,2,3,4,4a,5-hexahydropyrazino[1,2-a][1,5]benzodiazepin-6(7H)-one], for which the results for the 50% effective concentration (EC50) at 5HT2C receptors (setting [1]) and at 5HT2B receptors (setting [3]) were 0.0384 µM and above 10 µM, respectively. Besides, on 5HT2C receptors (setting [2]), the Emax is above 120%.

With `O=C1C[C@H]2CNCCN2c2cc(OCCc3cccc(F)c3)ccc2N1` [Example 164, (4aS)-10-[2-(3-fluorophenyl)ethoxy]-1,2,3,4,4a,5-hexahydropyrazino[1,2-a][1,5]benzodiazepin-6(7H)-one], the EC50 is 0.007 µM on 5HT2C receptors (setting [1]) and above 10 µM on 5HT2B receptors (setting [3]). Also, the Emax on 5HT2C receptors (setting [2]) is above 120%.

With `O=C1CC2CNCCN2c2cc(-c3cccc(OC(F)(F)F)c3)ccc2N1` (centres unmarked) [Example 93, 10-[3-(trifluoromethoxy)phenyl]-1,2,3,4,4a,5-hexahydropyrazino[1,2-a][1,5]benzodiazepin-6(7H)-one], the EC50 on 5HT2C receptors (setting [1]) is 0.007 µM; on 5HT2B receptors (setting [3]), above 10 µM. The Emax at 5HT2C receptors (setting [2]) is above 120%.
